Results published in PubChem BioAssay AID1963864 (Molecular Pharmacology Branch, DTP, NCI, 2024).

Test system: KRAS PDC multicell spheroid viability
Assay: Anticancer human tumor 521955-158-R6-J3-PDC patient-derived pancreatic carcinoma cell line growth inhibition [KRAS2]
Conditions: for IC50: curve of first compound; for viability, T/C: stronger effect = lower value
In short: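 KRAS-mutant tumor cells were grown as spheroids with HUVEC endothelial cells and human MSCs as stroma. Targeted agents were tested alone and with KRAS pathway inhibitors. Doses started at or near clinical Cmax, or 10 microM, descending half-log.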
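Also: drug exposure lasted seven days.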
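For viability, T/C in this document: 100% = DMSO vehicle wells and lower means fewer viable cells.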

SMILES: CC(C)NCC(C(=O)N1CCN(c2ncnc3c2C(C)CC3O)CC1)c1ccc(Cl)cc1 (stereo not given) + COc1cc2nc(C)nc(NC(C)c3cc(N)cc(C(F)(F)F)c3)c2cc1OC1CCOC1
- IC50 (second compound 0.1 µM): > 10 µM
- IC50 (second compound 0.316 µM): > 10 µM
- IC50 (second compound 1 µM): > 10 µM
- IC50 (second compound 3.16 µM): > 10 µM
- IC50 (second compound 10 µM): < 0.0316 µM
- viability, T/C (second compound 0.1 µM, first compound 0.0316 µM): 96.1%
- viability, T/C (second compound 0.1 µM, first compound 0.1 µM): 90.2%
- viability, T/C (second compound 0.1 µM, first compound 0.316 µM): 76.1%
- viability, T/C (second compound 0.1 µM, first compound 1 µM): 84.9%
- viability, T/C (second compound 0.1 µM, first compound 3.16 µM): 72.8%
- viability, T/C (second compound 0.1 µM, first compound 10 µM): 71.8%
- viability, T/C (second compound 0.316 µM, first compound 0.0316 µM): 83.8%
- viability, T/C (second compound 0.316 µM, first compound 0.1 µM): 79%
- viability, T/C (second compound 0.316 µM, first compound 0.316 µM): 75.7%
- viability, T/C (second compound 0.316 µM, first compound 1 µM): 70.3%
- viability, T/C (second compound 0.316 µM, first compound 3.16 µM): 77.7%
- viability, T/C (second compound 0.316 µM, first compound 10 µM): 64.6%
- viability, T/C (second compound 1 µM, first compound 0.0316 µM): 82.3%
- viability, T/C (second compound 1 µM, first compound 0.1 µM): 83.8%
- viability, T/C (second compound 1 µM, first compound 0.316 µM): 73.5%
- viability, T/C (second compound 1 µM, first compound 1 µM): 69.2%
- viability, T/C (second compound 1 µM, first compound 3.16 µM): 70.5%
- viability, T/C (second compound 1 µM, first compound 10 µM): 59.6%
- viability, T/C (second compound 3.16 µM, first compound 0.0316 µM): 63.3%
- viability, T/C (second compound 3.16 µM, first compound 0.1 µM): 62.1%
- viability, T/C (second compound 3.16 µM, first compound 0.316 µM): 67.2%
- viability, T/C (second compound 3.16 µM, first compound 1 µM): 63.7%
- viability, T/C (second compound 3.16 µM, first compound 3.16 µM): 72.1%
- viability, T/C (second compound 3.16 µM, first compound 10 µM): 67.7%
- viability, T/C (second compound 10 µM, first compound 0.0316 µM): 44.1%
- viability, T/C (second compound 10 µM, first compound 0.1 µM): 40.2%
- viability, T/C (second compound 10 µM, first compound 0.316 µM): 46.1%
- viability, T/C (second compound 10 µM, first compound 1 µM): 28.4%
- viability, T/C (second compound 10 µM, first compound 3.16 µM): 27.1%
- viability, T/C (second compound 10 µM, first compound 10 µM): 16.7%
